Reference: patent US20100279990A1, “ANTIPROLIFERATIVE COMPOUNDS, COMPOSITIONS AND METHODS OF USE” (RAMOT AT TEL-AVIV UNIVERSITY LTD., priority 2006, published 2010)
Like-named read-outs stand apart in the source and are kept apart here.

Key:
male Balb/C mice = assay: Acute toxicity in male Balb/C mice, ip; type: in vivo
Description: This example illustrates acute toxicity data derived from the treatment of male Balb/C mice with different concentrations of compound (Ia). The results are depicted in FIG. 11. Compound (Ia) was administered ip to groups of mice at doses of 10, 20 and 30 mg/kg. Sertraline was also administered to one group at 30 mg/kg. Each group of mice included five animals.
Body weight was determined up to 12 days after drug administration.

CXF HCT116 = assay: Monolayer Assay, PI: CXF HCT116 (Colorectal); type: cell-based, human
Description: (§1) This example illustrates cell proliferation data in the form of IC50, IC70 and IC90 values obtained by exposure of human cancer cell-lines to compound (Ia). […].

[1] = tested on: resistant colon carcinoma LS1034 cell-line; assay: Viability of resistant colon carcinoma LS1034 cell-line (FIG. 7A); type: cell-based; conditions: LS-1034, read-out: IC50, inhibition of cell viability
Description: This example illustrates cell viability data obtained by separately administering different concentrations of compound (Ia), sertraline, paroxetine, and doxorubicin to a […] resistant colon carcinoma LS1034 cell-line. The results are depicted in FIG. 7A.

RXF 944L = assay: Monolayer Assay, PI: RXF 944L (Renal); type: cell-based, human
Description: as §1

Jurkat Lymphoma cells = assay: Viability of Jurkat Lymphoma cells, combination with Doxorubicin; type: cell-based; conditions: Homo sapiens, read-out: inhibition of cell viability
LXF 529L = assay: Monolayer Assay, PI: LXF 529L (Lung); type: cell-based, human
Description: as §1

HNXF 536L = assay: Monolayer Assay, PI: HNXF 536L; type: cell-based, human
Description: as §1

BXF T24 = assay: Monolayer Assay, PI: BXF T24 (Bladder); type: cell-based, human
Description: as §1

[2] = tested on: BCL2 expression in human Jurkat lymphoma cells; assay: Western blot of BCL2 expression in human Jurkat lymphoma cell-line; type: cell-based; conditions: FIG. 10
Description: This example illustrates western blot data corresponding to BCL2 expression in a human Jurkat lymphoma cell-line treated with different concentrations of compound (Ia). The results are depicted in FIG. 10.

[3] = tested on: human Jurkat lymphoma cells; assay: Viability of human Jurkat lymphoma cells, alamar blue staining; type: cell-based; conditions: for IC50: Homo sapiens, 48 hr, alamar blue
Description: This example illustrates cell viability data derived from the incubation of a human. […] The results are depicted in FIGS. 1A, 1B, and 1C. […] See Nociari et al., J. Immunol. […] Each point represents the mean+/−SE of 4 determinations.

OVXF OVCAR3 = assay: Monolayer Assay, PI: OVXF OVCAR3 (Ovarian Cancer); type: cell-based, human
Description: as §1

MAXF MCF7 = assay: Monolayer Assay, PI: MAXF MCF7 (Breast); type: cell-based, human
Description: as §1

PRXF 22RV1 = assay: Monolayer Assay, PI: PRXF 22RV1 (Prostate); type: cell-based, human
Description: as §1

[4] = tested on: Con-A activated naive mouse splenocytes; assay: Con-A-induced mouse splenocyte proliferation, alamar blue staining; type: cell-based; conditions: Splenocyte, 48 hr, alamar blue, read-out: IC50, inhibition in cell viability
Description: This example illustrates cell viability data obtained by separately administering different concentrations of compound (Ia), paroxetine, citalopram, and ecitalopram to Con-A activated naive mouse splenocytes. FIG. 3A depicts the comparative effect of compound (Ia), paroxetine, citalopram and ecitalopram on Con-A-induced mouse splenocyte proliferation using alamar blue staining after 48 hr. Each point represents the mean+/−SE of 5 determinations.

## CN[C@H]1CC[C@@H](c2ccc(Cl)c(Cl)c2)c2ccc(C#CCCCO)cc21 [compound (Ia), (1S-cis)-4-(3,4-dichlorophenyl)-7-(5-hydroxy-1-pentyn-1-yl)-1,2,3,4-tetrahydro-N-methyl-1-naphthalenamine hydroiodide]
Male Balb/C mice; ip 10, 20 and 30 mg/kg, observed 4 h and after 24 h
  behavioral changes: none of the animals showed any observed change in behavior
Male Balb/C mice; ip 10, 20 and 30 mg/kg, over 12 days
  changes in food intake or body weight: none of the animals exhibited changes in food intake or body weight
Male Balb/C mice; ip, up to 30 mg/kg
  tolerability of acute ip administration: well tolerated
CXF HCT116; 2.3 μg/ml
  Test/Control (%): 93%
  Test/Control activity class: − (− (T/C = 50))
CXF HCT116; 7.5 μg/ml
  Test/Control (%): 4%
  Test/Control activity class: +++ (+++ (T/C < 10))
CXF HCT116; 23. μg/ml
  Test/Control (%): 2%
  Test/Control activity class: +++ (+++ (T/C < 10))
CXF HCT116; 75. μg/ml
  Test/Control (%): 1%
  Test/Control activity class: +++ (+++ (T/C < 10))
CXF HCT116; .75 μg/ml
  Test/Control (%): 99%
  Test/Control activity class: − (− (T/C = 50))
[1]
  IC50: 11.3 µM
RXF 944L; 2.3 μg/ml
  Test/Control (%): 103%
  Test/Control activity class: − (− (T/C = 50))
RXF 944L; 7.5 μg/ml
  Test/Control (%): 9%
  Test/Control activity class: +++ (+++ (T/C < 10))
RXF 944L; 23. μg/ml
  Test/Control (%): 3%
  Test/Control activity class: +++ (+++ (T/C < 10))
RXF 944L; 75. μg/ml
  Test/Control (%): 3%
  Test/Control activity class: +++ (+++ (T/C < 10))
RXF 944L; .75 μg/ml
  Test/Control (%): 94%
  Test/Control activity class: − (− (T/C = 50))
Jurkat Lymphoma cells; 5 μM alone
  cytotoxicity at 5 µM: 18%
Jurkat Lymphoma cells; 10 μM alone
  cytotoxicity at 10 µM: 59.5%
LXF 529L; 2.3 μg/ml
  Test/Control (%): 97%
  Test/Control activity class: − (− (T/C = 50))
LXF 529L; 7.5 μg/ml
  Test/Control (%): 17%
  Test/Control activity class: ++ (++ (10 <= T/C < 30))
LXF 529L; 23. μg/ml
  Test/Control (%): 3%
  Test/Control activity class: +++ (+++ (T/C < 10))
LXF 529L; 75. μg/ml
  Test/Control (%): 5%
  Test/Control activity class: +++ (+++ (T/C < 10))
LXF 529L; .75 μg/ml
  Test/Control (%): 93%
  Test/Control activity class: − (− (T/C = 50))
HNXF 536L; 2.3 μg/ml
  Test/Control (%): 102%
  Test/Control activity class: − (− (T/C = 50))
HNXF 536L; 7.5 μg/ml
  Test/Control (%): 97%
  Test/Control activity class: − (− (T/C = 50))
HNXF 536L; 23. μg/ml
  Test/Control (%): 4%
  Test/Control activity class: +++ (+++ (T/C < 10))
HNXF 536L; 75. μg/ml
  Test/Control (%): 3%
  Test/Control activity class: +++ (+++ (T/C < 10))
HNXF 536L; .75 μg/ml
  Test/Control (%): 112%
  Test/Control activity class: − (− (T/C = 50))
BXF T24; 2.3 μg/ml
  Test/Control (%): 93%
  Test/Control activity class: − (− (T/C = 50))
BXF T24; 7.5 μg/ml
  Test/Control (%): 53%
  Test/Control activity class: − (− (T/C = 50))
BXF T24; 23. μg/ml
  Test/Control (%): 2%
  Test/Control activity class: +++ (+++ (T/C < 10))
BXF T24; 75. μg/ml
  Test/Control (%): 2%
  Test/Control activity class: +++ (+++ (T/C < 10))
BXF T24; .75 μg/ml
  Test/Control (%): 88%
  Test/Control activity class: − (− (T/C = 50))
[2]
  BCL2 expression: rapid dose dependent decrease in the levels of the protooncogene Bcl2
[3]; FIG. 1A, read-out: IC50, anti-proliferative activity
  IC50: 12.5 µM
[3]; FIG. 1B, read-out: IC50, decrease in cell viability
  IC50: 16.2 µM
[3]; lower concentrations (1-10 μM), FIG. 1B
  potency compared with sertraline: higher potency than sertraline
OVXF OVCAR3; 2.3 μg/ml
  Test/Control (%): 103%
  Test/Control activity class: − (− (T/C = 50))
OVXF OVCAR3; 7.5 μg/ml
  Test/Control (%): 78%
  Test/Control activity class: − (− (T/C = 50))
OVXF OVCAR3; 23. μg/ml
  Test/Control (%): 4%
  Test/Control activity class: +++ (+++ (T/C < 10))
OVXF OVCAR3; 75. μg/ml
  Test/Control (%): 5%
  Test/Control activity class: +++ (+++ (T/C < 10))
OVXF OVCAR3; .75 μg/ml
  Test/Control (%): 109%
  Test/Control activity class: − (− (T/C = 50))
MAXF MCF7; 2.3 μg/ml
  Test/Control (%): 67%
  Test/Control activity class: − (− (T/C = 50))
MAXF MCF7; 7.5 μg/ml
  Test/Control (%): 5%
  Test/Control activity class: +++ (+++ (T/C < 10))
MAXF MCF7; 23. μg/ml
  Test/Control (%): 2%
  Test/Control activity class: +++ (+++ (T/C < 10))
MAXF MCF7; 75. μg/ml
  Test/Control (%): 3%
  Test/Control activity class: +++ (+++ (T/C < 10))
MAXF MCF7; .75 μg/ml
  Test/Control (%): 93%
  Test/Control activity class: − (− (T/C = 50))
PRXF 22RV1; 2.3 μg/ml
  Test/Control (%): 80%
  Test/Control activity class: − (− (T/C = 50))
PRXF 22RV1; 7.5 μg/ml
  Test/Control (%): 24%
  Test/Control activity class: ++ (++ (10 <= T/C < 30))
PRXF 22RV1; 23. μg/ml
  Test/Control (%): 2%
  Test/Control activity class: +++ (+++ (T/C < 10))
PRXF 22RV1; 75. μg/ml
  Test/Control (%): 2%
  Test/Control activity class: +++ (+++ (T/C < 10))
PRXF 22RV1; .75 μg/ml
  Test/Control (%): 85%
  Test/Control activity class: − (− (T/C = 50))
[4]
  IC50: 3.9 µM
